Laboratory results as given in PMC12203311, “Design, synthesis, in silico and in vitro evaluation of pyrrole–indole hybrids as dual tubulin and aromatase inhibitors with potent anticancer activities” (RSC Advances, 2025).

Assays:
[1] = test system: HOP-62; assay: NCI60 five-dose screen; format: cell-based; settings: Homo sapiens, HOP-62, NSC lung cancer; for CC50: read-out: LC50 (the source's name)
[2] = test system: CCRF-CEM; assay: NCI60 five-dose screen; format: cell-based; settings: Homo sapiens, leukemia; for CC50: read-out: LC50 (the source's name)
[3] = test system: LOX IMVI; assay: NCI60 five-dose screen; format: cell-based; settings: Homo sapiens, melanoma; for CC50: read-out: LC50 (the source's name)
[4] = test system: BT-549; assay: NCI60 five-dose screen; format: cell-based; settings: Homo sapiens, BT-549, breast cancer; for CC50: read-out: LC50 (the source's name)
[5] = test system: A549/ATCC; assay: NCI60 five-dose screen; format: cell-based; settings: Homo sapiens, NSC lung cancer; for CC50: read-out: LC50 (the source's name)
[6] = test system: SF-295; assay: NCI60 five-dose screen; format: cell-based; settings: Homo sapiens, SF-295, CNS cancer; for CC50: read-out: LC50 (the source's name)
[7] = test system: HCT-15; assay: NCI60 five-dose screen; format: cell-based; settings: Homo sapiens, HCT-15, colon cancer; for CC50: read-out: LC50 (the source's name)
[8] = test system: OVCAR-8; assay: NCI60 five-dose screen; format: cell-based; settings: Homo sapiens, OVCAR-8, ovarian cancer; for CC50: read-out: LC50 (the source's name)
[9] = test system: SK-OV-3; assay: NCI60 five-dose screen; format: cell-based; settings: Homo sapiens, SK-OV-3, ovarian cancer; for CC50: read-out: LC50 (the source's name)
[10] = test system: RXF 393; assay: NCI60 five-dose screen; format: cell-based; settings: Homo sapiens, RXF 393, renal cancer; for CC50: read-out: LC50 (the source's name)
[11] = test system: SK-MEL-28; assay: NCI60 five-dose screen; format: cell-based; settings: Homo sapiens, SK-MEL-28, melanoma; for CC50: read-out: LC50 (the source's name)
[12] = test system: COLO 205; assay: NCI60 five-dose screen; format: cell-based, human; settings: Homo sapiens; for GI50: COLO 205, colon cancer; for CC50: COLO 205, COLO 205, colon cancer, read-out: LC50 (the source's name)
[13] = test system: NCI-H460; assay: NCI60 five-dose screen; format: cell-based; settings: Homo sapiens, NCI-H460, NSC lung cancer; for CC50: read-out: LC50 (the source's name)
[14] = test system: PC-3; assay: NCI60 five-dose screen; format: cell-based; settings: Homo sapiens, PC-3, prostate cancer; for CC50: read-out: LC50 (the source's name)
[15] = test system: HOP-92; assay: NCI60 five-dose screen; format: cell-based; settings: Homo sapiens, HOP-92, NSC lung cancer; for CC50: read-out: LC50 (the source's name)
[16] = test system: A498; assay: NCI60 five-dose screen; format: cell-based; settings: Homo sapiens, A498, renal cancer; for CC50: read-out: LC50 (the source's name)
[17] = test system: HL-60 (TB); assay: NCI60 five-dose screen; format: cell-based; settings: Homo sapiens, leukemia; for CC50: read-out: LC50 (the source's name)
[18] = test system: UACC-257; assay: NCI60 five-dose screen; format: cell-based; settings: Homo sapiens, UACC-257, melanoma; for CC50: read-out: LC50 (the source's name)
[19] = test system: RPMI-8226; assay: NCI60 five-dose screen; format: cell-based; settings: Homo sapiens, RPMI-8226, leukemia; for CC50: read-out: LC50 (the source's name)
[20] = test system: MALME-3M; assay: NCI60 five-dose screen; format: cell-based; settings: Homo sapiens, melanoma; for CC50: read-out: LC50 (the source's name)
[21] = test system: L929 normal mouse fibroblast cell line; assay: Cytotoxicity MTT assay, L929; format: cell-based; settings: IC50 (L929)/IC50 (T47D)
Summary of the method: (§1)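 10 000 cells/well, overnight attachment; compound 48 h in DMEM/10% FBS, 37 °C, 5% CO2. MTT 0.5 mg mL^−1, 3 h; formazan in DMSO; A570. % viability vs DMSO vehicle.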

[22] = Cytotoxicity MTT assay, L929; format: cell-based, mouse; settings: mouse, L929 fibroblast cells; MTT, 48 hours
Summary of the method: as §1

[23] = test system: UO-31; assay: NCI60 five-dose screen; format: cell-based; settings: Homo sapiens, UO-31, renal cancer; for CC50: read-out: LC50 (the source's name)
[24] = test system: NCI-H23; assay: NCI60 five-dose screen; format: cell-based; settings: Homo sapiens, NCI-H23, NSC lung cancer; for CC50: read-out: LC50 (the source's name)
[25] = test system: MDA-MB-468; assay: NCI60 five-dose screen; format: cell-based; settings: Homo sapiens, MDA-MB-468, breast cancer; for CC50: read-out: LC50 (the source's name)
[26] = test system: CAKI-1; assay: NCI60 five-dose screen; format: cell-based; settings: Homo sapiens, CAKI-1, renal cancer; for CC50: read-out: LC50 (the source's name)
[27] = test system: SF-268; assay: NCI60 five-dose screen; format: cell-based; settings: Homo sapiens, SF-268, CNS cancer; for CC50: read-out: LC50 (the source's name)
[28] = test system: MDA-MB-435; assay: NCI60 five-dose screen; format: cell-based, human; settings: Homo sapiens; for CC50: MDA-MB-435, MDA-MB-435, melanoma, read-out: LC50 (the source's name); for GI50: MDA-MB-435, melanoma
[29] = test system: 786-0; assay: NCI60 five-dose screen; format: cell-based; settings: Homo sapiens, 786-0, renal cancer; for CC50: read-out: LC50 (the source's name)
[30] = test system: NCI-H226; assay: NCI60 five-dose screen; format: cell-based; settings: Homo sapiens, NCI-H226, NSC lung cancer; for CC50: read-out: LC50 (the source's name)
[31] = test system: SN12C; assay: NCI60 five-dose screen; format: cell-based; settings: Homo sapiens, renal cancer; for CC50: read-out: LC50 (the source's name)

Compound: CCc1c[nH]c(/C=N/NC(=O)c2[nH]c3ccc(Br)cc3c2-c2ccccc2)c1 [Derivative 3t, (E)-5-Bromo-N′-((4-ethyl-1H-pyrrol-2-yl)methylene)-3-phenyl-1H-indole-2-carbohydrazide]
- GI50 [1]: 1.35 µM
- CC50 [1]: 37.5 µM
- GI50 [2]: 0.368 µM
- CC50 [2]: > 100 µM
- GI50 [3]: 0.427 µM
- CC50 [3]: 8.27 µM
- GI50 [4]: 0.39 µM
- CC50 [4]: 23.9 µM
- GI50 [5]: 0.397 µM
- CC50 [5]: 38.8 µM
- GI50 [6]: 0.319 µM
- CC50 [6]: 24.7 µM
- GI50 [7]: 0.319 µM
- CC50 [7]: 35.6 µM
- GI50 [8]: 0.316 µM
- CC50 [8]: 26 µM
- GI50 [9]: 0.922 µM
- CC50 [9]: 35.4 µM
- GI50 [10]: 0.217 µM
- CC50 [10]: 21 µM
- GI50 [11]: 0.839 µM
- CC50 [11]: 46.6 µM
- GI50 [12]: 0.207 µM
- GI50 [13]: 0.346 µM
- CC50 [13]: 20.2 µM
- GI50 [14]: 0.529 µM
- CC50 [14]: 57 µM
- GI50 [15]: 2.57 µM
- CC50 [15]: 33 µM
- GI50 [16]: 13.7 µM
- CC50 [16]: 54.5 µM
- GI50 [17]: 0.237 µM
- CC50 [17]: 91.9 µM
- GI50 [18]: 1.23 µM
- CC50 [18]: 41.3 µM
- GI50 [19]: 0.343 µM
- CC50 [19]: > 100 µM
- GI50 [20]: 1.72 µM
- CC50 [20]: 48 µM
- Selectivity index (SI) [21]: 1.54
- IC50 at 48 h [22]: 7.1 ± 3.6 µM
- GI50 [23]: 1 µM
- CC50 [23]: 40.7 µM
- GI50 [24]: 0.408 µM
- CC50 [24]: 37.4 µM
- GI50 [25]: 0.263 µM
- CC50 [25]: 9.22 µM
- GI50 [26]: 1.05 µM
- CC50 [26]: 34.4 µM
- GI50 [27]: 0.861 µM
- CC50 [27]: 51.9 µM
- CC50 [28]: 38.7 µM
- GI50 [28]: 0.23 µM
- GI50 [29]: 0.646 µM
- CC50 [29]: 38.5 µM
- GI50 [30]: 0.33 µM
- CC50 [30]: 28 µM
- GI50 [31]: 0.372 µM
- CC50 [31]: 30 µM

Compound: O=C(N/N=C/c1[nH]ccc1Cl)c1[nH]c2ccc(Br)cc2c1-c1ccccc1 [Derivative 3g, (E)-5-Bromo-N′-((3-chloro-1H-pyrrol-2-yl)methylene)-3-phenyl-1H-indole-2-carbohydrazide]
- GI50 [1]: 3.8 µM
- CC50 [1]: 60.8 µM
- GI50 [2]: 1.53 µM
- CC50 [2]: > 100 µM
- GI50 [3]: 0.555 µM
- CC50 [3]: 29.4 µM
- GI50 [4]: 3.56 µM
- CC50 [4]: 46.8 µM
- GI50 [5]: 0.838 µM
- CC50 [5]: 53.4 µM
- GI50 [6]: 0.501 µM
- CC50 [6]: 26 µM
- GI50 [7]: 0.465 µM
- CC50 [7]: 34.3 µM
- GI50 [8]: 0.481 µM
- CC50 [8]: 27.7 µM
- GI50 [9]: 11.6 µM
- CC50 [9]: 64.1 µM
- GI50 [10]: 0.346 µM
- CC50 [10]: 42.1 µM
- GI50 [11]: 0.909 µM
- CC50 [11]: 47.5 µM
- CC50 [12]: 40.3 µM
- GI50 [12]: 1.66 µM
- GI50 [13]: 0.448 µM
- CC50 [13]: 34.3 µM
- GI50 [14]: 0.826 µM
- CC50 [14]: 63.6 µM
- GI50 [15]: 2.79 µM
- CC50 [15]: 50.1 µM
- GI50 [16]: 10.6 µM
- CC50 [16]: 49.3 µM
- GI50 [17]: 0.891 µM
- CC50 [17]: > 100 µM
- GI50 [18]: 0.738 µM
- CC50 [18]: 52 µM
- GI50 [19]: 0.855 µM
- CC50 [19]: > 100 µM
- GI50 [20]: 0.596 µM
- CC50 [20]: 48.4 µM
- Selectivity index (SI) [21]: 2.45
- IC50 at 48 h [22]: 20.1 ± 10.3 µM
- GI50 [23]: 0.577 µM
- CC50 [23]: 35.7 µM
- GI50 [24]: 0.884 µM
- CC50 [24]: 34.4 µM
- GI50 [25]: 0.297 µM
- CC50 [25]: 24.7 µM
- GI50 [26]: 0.445 µM
- CC50 [26]: 36.9 µM
- GI50 [27]: 1.76 µM
- CC50 [27]: 53 µM
- CC50 [28]: 25.5 µM
- GI50 [28]: 0.222 µM
- GI50 [29]: 2.58 µM
- CC50 [29]: 50.2 µM
- GI50 [30]: 1.44 µM
- CC50 [30]: 32.1 µM
- GI50 [31]: 1.34 µM
- CC50 [31]: 29.2 µM

Compound: CCc1ccc(/C=N/NC(=O)c2[nH]c3ccc(Br)cc3c2-c2ccccc2)[nH]1 [Derivative 3s, (E)-5-Bromo-N′-((5-ethyl-1H-pyrrol-2-yl)methylene)-3-phenyl-1H-indole-2-carbohydrazide]
- GI50 [1]: 0.861 µM
- CC50 [1]: 46.2 µM
- GI50 [2]: 0.375 µM
- CC50 [2]: > 100 µM
- GI50 [3]: 0.722 µM
- CC50 [3]: 36.1 µM
- GI50 [4]: 0.979 µM
- CC50 [4]: 30.3 µM
- GI50 [5]: 0.399 µM
- CC50 [5]: 70.3 µM
- GI50 [6]: 0.246 µM
- CC50 [6]: 31.9 µM
- GI50 [7]: 0.349 µM
- CC50 [7]: 37.4 µM
- GI50 [8]: 0.337 µM
- CC50 [8]: 25.2 µM
- GI50 [9]: 0.514 µM
- CC50 [9]: 50.1 µM
- GI50 [10]: 0.194 µM
- CC50 [10]: 28.9 µM
- GI50 [11]: 0.979 µM
- CC50 [11]: 49.8 µM
- CC50 [12]: 26.1 µM
- GI50 [12]: 0.316 µM
- GI50 [13]: 0.396 µM
- CC50 [13]: 43.5 µM
- GI50 [14]: 0.532 µM
- CC50 [14]: > 100 µM
- GI50 [15]: 2.01 µM
- CC50 [15]: 40.1 µM
- GI50 [16]: 5.59 µM
- CC50 [16]: 47.2 µM
- GI50 [17]: 0.235 µM
- CC50 [17]: > 100 µM
- GI50 [18]: 1.32 µM
- CC50 [18]: 64.7 µM
- GI50 [19]: 0.375 µM
- CC50 [19]: > 100 µM
- GI50 [20]: 0.88 µM
- CC50 [20]: 46.5 µM
- Selectivity index (SI) [21]: 5.13
- IC50 at 48 h [22]: 19.5 ± 11.8 µM
- GI50 [23]: 0.644 µM
- CC50 [23]: 59.9 µM
- GI50 [24]: 0.484 µM
- CC50 [24]: 42.6 µM
- GI50 [25]: 0.248 µM
- CC50 [25]: 25.9 µM
- GI50 [26]: 1.04 µM
- CC50 [26]: 56.2 µM
- GI50 [27]: 1.47 µM
- CC50 [27]: 83 µM
- CC50 [28]: 34 µM
- GI50 [28]: 0.227 µM
- GI50 [29]: 0.801 µM
- CC50 [29]: 47.4 µM
- GI50 [30]: 0.506 µM
- CC50 [30]: 32.3 µM
- GI50 [31]: 0.392 µM
- CC50 [31]: 30.3 µM
